# Measurements published in US20140121732A1, “METHODS AND COMPOSITIONS FOR ADMINISTERING A SPECIFIC WAVELENGTH PHOTOTHERAPY” (Applied Biology, Inc., priority 2011, published 2014).
# Assay: UV absorbance spectrum and derived transmittance profile of photocream applied at 20 μm
# Type: physicochemical
# Text: In one embodiment of the present invention, a band-pass photocream is composed such that it is optimized to have maximum transmittance at a therapeutic wavelength of 311 nm for the treatment of vitiligo, psoriasis, atopic dermatitis, and other skin conditions. Said photocream would contain two UV absorbing active ingredients having UV absorbance spectra that when combined in a determined ratio would have a spectral minimum (valley) at 311 nm. For example, a band-pass photocream could be formulated with silymarin (CAS#22888-70-6) and diethylamino hydroxybenzoyl hexyl benzoate (CAS#302776-68-7) in a weight to weight ratio of 2:3 (or less preferably within the range 1:2 to 5:6, or within the range 5:9 to 7:9) to produce an absorbance spectrum with a spectral valley at 311 nm. Said photocream may contain 0.75% (w/w) silymarin (CAS#22888-70-6) and 1.125% (w/w) diethylamino hydroxybenzoyl hexyl benzoate (CAS#302776-68-7). An illustrative absorbance spectrum for such a composition is shown in FIG. 3 when applied at a thickness of 20 μm. […] Alternatively, a band-pass photocream could be formulated with alpha-glucosyl hesperidin (CAS#161713-86-6) and diethylamino hydroxybenzoyl hexyl benzoate (CAS#302776-68-7) in the weight to weight ratio of 4:1 (or less preferably within the range 3:1 to 5:1, or within the range 7:2 to 9:2) to produce an absorbance spectrum with a spectral valley at 311 nm.
# In yet another embodiment, a combination of UV absorbing molecules may be formulated to selectively pass UVB light in the range 306-310 nm for the benefit of maximum vitamin D production while still providing limited protecting from erythema. Said photocream may contain two UV absorbing active ingredients having UV absorption spectra that when combined in a determined ratio would have a spectral minimum (valley) at 308 nm. […] Said photocream could contain 1% (w/w) silymarin (CAS#22888-70-6) and 2.5% (w/w) diethylamino hydroxybenzoyl hexyl benzoate (CAS#302776-68-7) and would produce an absorbance spectra shown in FIG. 7 when applied at a thickness of 20 μm. […]
row,Structure (SMILES),UV absorbance (in words)
1,"COc1ccc(C(=O)CC(=O)c2ccc(C(C)(C)C)cc2)cc1 [Avobenzone, avobenzone]",significant absorbance in the UVA
2,"COc1ccc([C@@H]2CC(=O)c3c(O)cc(O[C@@H]4O[C@H](CO[C@@H]5O[C@@H](C)[C@H](O)[C@@H](O)[C@H]5O)[C@@H](O)[C@H](O)[C@H]4O)cc3O2)cc1O [Hesperidin, hesperidin]",significant absorbance in the lower UVB range below roughly 310 nm
3,"COC(=O)C=Cc1ccccc1 [Methyl cinnamate, methyl cinnamate]",significant absorbance in the lower UVB range below roughly 310 nm
